Values joined by “and” are separate entries in the source; they are usually repeats but may differ in a detail not shown here. Equal entries are not always repeated. Active and inactive are the calls of the source.
How the values were obtained:
[1] = biological target: Protein disulfide-isomerase (Homo sapiens, UniProt P07237); test: inhibition of PDI-mediated insulin reduction – biochemical, turbidity, dry powder samples, set 2, confirmation (AID 652146)
[2] = biological target: Potassium channel subfamily K member 9 (Homo sapiens, UniProt Q9NPC2); test: KCNK9 flux blockade, concentration-response – cell-based, FluxOR thallium flux, selectivity assay for TASK1 inhibitor project, SAR follow-up (AID 652211); type: functional;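 note: potency is for inhibitors of the channel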
Sequence of Potassium channel subfamily K member 9 (Q9NPC2 whole entry): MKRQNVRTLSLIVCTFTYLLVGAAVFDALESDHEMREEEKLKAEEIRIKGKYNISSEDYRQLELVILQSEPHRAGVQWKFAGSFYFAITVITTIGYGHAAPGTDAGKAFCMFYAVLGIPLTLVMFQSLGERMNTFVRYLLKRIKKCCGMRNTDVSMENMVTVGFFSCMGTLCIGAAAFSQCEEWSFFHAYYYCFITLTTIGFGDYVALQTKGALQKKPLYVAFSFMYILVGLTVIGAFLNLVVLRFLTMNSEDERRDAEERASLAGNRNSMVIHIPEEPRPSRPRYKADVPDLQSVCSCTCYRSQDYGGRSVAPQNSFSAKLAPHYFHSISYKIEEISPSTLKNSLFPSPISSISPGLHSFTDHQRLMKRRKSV

[3] = biological target: Voltage-gated inwardly rectifying potassium channel KCNH2 (Homo sapiens, UniProt Q12809); test: off-target hERG block by TASK1 inhibitor candidates – FluxOR thallium flux, concentration-response, CHO cells, selectivity assay for TASK1 inhibitor project, SAR follow-up (AID 652194); type: functional, cell-based
Sequence of Voltage-gated inwardly rectifying potassium channel KCNH2 (Q12809 whole entry): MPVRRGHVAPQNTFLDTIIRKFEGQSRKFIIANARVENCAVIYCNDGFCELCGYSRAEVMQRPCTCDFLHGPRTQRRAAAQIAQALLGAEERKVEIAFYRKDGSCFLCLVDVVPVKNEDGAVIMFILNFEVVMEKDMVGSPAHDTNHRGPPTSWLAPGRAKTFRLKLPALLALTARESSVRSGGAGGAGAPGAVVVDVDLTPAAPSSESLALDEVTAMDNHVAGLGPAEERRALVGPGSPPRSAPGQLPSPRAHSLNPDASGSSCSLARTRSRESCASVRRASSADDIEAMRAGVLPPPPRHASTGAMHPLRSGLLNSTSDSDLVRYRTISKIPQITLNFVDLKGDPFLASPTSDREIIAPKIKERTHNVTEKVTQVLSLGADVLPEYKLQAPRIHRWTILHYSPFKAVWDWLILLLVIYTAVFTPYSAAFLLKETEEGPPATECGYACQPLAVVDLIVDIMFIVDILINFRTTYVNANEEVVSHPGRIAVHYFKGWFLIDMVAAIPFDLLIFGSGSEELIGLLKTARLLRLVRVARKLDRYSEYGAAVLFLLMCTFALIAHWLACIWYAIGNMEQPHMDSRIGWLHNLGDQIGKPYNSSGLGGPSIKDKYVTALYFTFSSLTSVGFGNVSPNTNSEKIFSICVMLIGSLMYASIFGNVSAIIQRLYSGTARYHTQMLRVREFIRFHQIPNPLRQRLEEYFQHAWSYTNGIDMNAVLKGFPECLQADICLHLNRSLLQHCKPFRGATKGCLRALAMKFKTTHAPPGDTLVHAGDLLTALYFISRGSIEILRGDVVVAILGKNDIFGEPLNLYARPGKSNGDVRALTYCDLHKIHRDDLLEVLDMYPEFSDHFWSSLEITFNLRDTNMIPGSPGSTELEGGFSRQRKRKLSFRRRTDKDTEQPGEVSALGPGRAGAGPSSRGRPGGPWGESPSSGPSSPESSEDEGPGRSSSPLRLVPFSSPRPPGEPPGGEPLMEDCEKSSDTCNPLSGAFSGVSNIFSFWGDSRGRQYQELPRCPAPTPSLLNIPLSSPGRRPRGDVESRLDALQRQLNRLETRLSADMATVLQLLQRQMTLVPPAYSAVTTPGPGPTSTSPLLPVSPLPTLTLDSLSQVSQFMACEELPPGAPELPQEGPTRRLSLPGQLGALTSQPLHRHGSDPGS

[4] = biological target: Potassium channel subfamily K member 3 (Homo sapiens, UniProt O14649); test: inhibition of human KCNK3 channel flux – CHO cells, FluxOR thallium flux, SAR follow-up (AID 652212); type: functional
Sequence of Potassium channel subfamily K member 3 (O14649 whole entry): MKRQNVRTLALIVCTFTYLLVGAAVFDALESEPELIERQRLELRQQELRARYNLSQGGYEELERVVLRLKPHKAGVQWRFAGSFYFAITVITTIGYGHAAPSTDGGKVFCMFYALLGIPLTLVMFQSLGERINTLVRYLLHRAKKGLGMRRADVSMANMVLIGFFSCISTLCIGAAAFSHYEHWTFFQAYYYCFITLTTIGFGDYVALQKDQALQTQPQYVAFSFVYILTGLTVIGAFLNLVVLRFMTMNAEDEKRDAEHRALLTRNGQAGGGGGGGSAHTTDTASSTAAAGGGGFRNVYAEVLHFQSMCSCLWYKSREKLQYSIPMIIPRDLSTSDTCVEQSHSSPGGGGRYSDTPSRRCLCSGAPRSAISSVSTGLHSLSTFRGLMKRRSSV

Bcl-2-related protein A1 [5] = biological target: T1, Bcl-2-related protein A1 (Mus musculus, UniProt Q07440); test: displacement of Bid BH3 peptide from Bfl-1 – biochemical, fluorescence polarization, FITC-Bid, mouse, primary screen (AID 432)
T1 sequence (Q07440 whole entry): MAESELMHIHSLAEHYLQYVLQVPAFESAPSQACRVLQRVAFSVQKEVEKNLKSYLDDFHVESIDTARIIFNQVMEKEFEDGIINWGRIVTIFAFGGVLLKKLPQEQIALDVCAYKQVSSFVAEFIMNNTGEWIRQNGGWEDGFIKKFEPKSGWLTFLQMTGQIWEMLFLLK

[6] = biological target: Glyceraldehyde-3-phosphate dehydrogenase (Homo sapiens, UniProt P04406)
Sequence of Glyceraldehyde-3-phosphate dehydrogenase (P04406 whole entry): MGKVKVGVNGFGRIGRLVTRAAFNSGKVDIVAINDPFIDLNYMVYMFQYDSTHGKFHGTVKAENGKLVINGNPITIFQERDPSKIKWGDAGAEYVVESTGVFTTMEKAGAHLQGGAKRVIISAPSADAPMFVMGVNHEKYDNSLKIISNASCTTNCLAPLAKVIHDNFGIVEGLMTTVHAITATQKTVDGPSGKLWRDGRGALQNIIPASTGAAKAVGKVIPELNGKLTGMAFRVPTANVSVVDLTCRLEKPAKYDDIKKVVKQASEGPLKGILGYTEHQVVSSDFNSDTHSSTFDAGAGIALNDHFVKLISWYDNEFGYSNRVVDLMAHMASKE

[7] = HPDE-C7 pancreatic duct cell viability loss – fluorescence, HTS (AID 430); type: functional, cell-based; conditions: Homo sapiens
Bcl-2-related protein A1 [8] = biological target: T1, Bcl-2-related protein A1; test: small-molecule antagonists of Bfl-1/BH3 interaction – biochemical, TR-FRET, mouse Bfl-1, confirmation (AID 621);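 note: TR-FRET binding of GST-Bfl-1 to FITC-labelled Bid peptide via terbium antibody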
[9] = viability loss of HPDE-C7K cells – cell-based, fluorescence, HTS, primary screen (AID 431); type: functional; conditions: Homo sapiens
Bcl-2-related protein A1 [10] = biological target: T1, Bcl-2-related protein A1; test: Bfl-1 binding inhibitors, SAR follow-up, biochemical, fluorescence polarization (AID 1070)
[11] = viability of PTEN-deleted HCT116 cells – cell-based, HCT116 PTEN knockout, dose response (AID 1047); type: functional;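 note: HCT116 colon tumor cells with PTEN knocked out; cells exposed to compound for 60 hours before readout; potency for loss of cell viability measured by luminescence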
[12] = biological target: T2, Heat shock factor protein 1 (Mus musculus, UniProt P38532); test: enhancement of HSF1-driven luciferase signal – cell-based, NIH3T3, luminescence, dose retest, confirmation (AID 435004); type: functional;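 note: stress induced by proteasome inhibitor MG132 added 30 min after compound; luciferase reporter driven by HSF1 response element in NIH3T3 cells; actives raise luminescence as potentiators of the MG132 stress response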
T2 sequence (P38532 whole entry): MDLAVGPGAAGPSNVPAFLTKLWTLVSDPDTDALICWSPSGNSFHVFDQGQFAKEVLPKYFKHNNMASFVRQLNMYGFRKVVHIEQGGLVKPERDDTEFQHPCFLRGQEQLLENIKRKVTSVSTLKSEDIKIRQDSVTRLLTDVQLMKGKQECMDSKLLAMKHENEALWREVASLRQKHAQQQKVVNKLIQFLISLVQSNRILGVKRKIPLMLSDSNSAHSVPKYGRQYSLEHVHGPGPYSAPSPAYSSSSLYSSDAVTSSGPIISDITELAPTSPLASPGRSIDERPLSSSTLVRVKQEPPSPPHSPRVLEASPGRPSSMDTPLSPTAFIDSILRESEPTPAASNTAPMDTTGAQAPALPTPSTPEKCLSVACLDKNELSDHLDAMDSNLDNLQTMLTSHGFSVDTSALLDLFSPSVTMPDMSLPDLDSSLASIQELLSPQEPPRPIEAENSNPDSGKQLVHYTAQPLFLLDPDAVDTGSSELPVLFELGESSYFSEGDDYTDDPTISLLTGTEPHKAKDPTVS

[13] = viability loss in HEK293T cells – cell-based, cherry-picks, cytotoxicity control for HIV Vif inhibitor project, dose response (AID 652208); type: functional
NS3 = NS3 (Hepatitis C virus, UniProt A3EZJ3); test: NS3h DNA-binding inhibition IC50 – biochemical, fluorescence polarization, ChemBridge library, dose response (AID 743264)
Sequence of NS3 (A3EZJ3 whole entry): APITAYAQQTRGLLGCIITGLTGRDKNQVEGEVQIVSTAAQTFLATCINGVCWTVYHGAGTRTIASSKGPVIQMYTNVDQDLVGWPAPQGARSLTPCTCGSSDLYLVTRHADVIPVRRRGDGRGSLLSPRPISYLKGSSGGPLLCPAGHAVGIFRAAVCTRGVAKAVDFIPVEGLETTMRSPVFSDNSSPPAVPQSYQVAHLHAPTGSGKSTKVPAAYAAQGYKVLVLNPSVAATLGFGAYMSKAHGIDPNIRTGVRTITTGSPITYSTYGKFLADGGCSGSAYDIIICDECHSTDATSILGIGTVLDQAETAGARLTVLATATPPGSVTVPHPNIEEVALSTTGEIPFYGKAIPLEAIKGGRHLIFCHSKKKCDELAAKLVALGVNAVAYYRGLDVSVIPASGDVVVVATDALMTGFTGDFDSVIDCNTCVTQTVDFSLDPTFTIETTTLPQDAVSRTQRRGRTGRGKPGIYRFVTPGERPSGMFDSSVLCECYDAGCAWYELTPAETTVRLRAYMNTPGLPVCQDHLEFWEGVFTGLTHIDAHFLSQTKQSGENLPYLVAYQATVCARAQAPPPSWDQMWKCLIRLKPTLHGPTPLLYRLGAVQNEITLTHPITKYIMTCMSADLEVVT

[14] = tested on: Streptococcus sp. 'group A'; test: Streptococcus pyogenes SK(-)GAS viability under kanamycin – luminescence, BacTiterGlo, confirmation, counter-screen for streptokinase expression inhibitor project, dose response (AID 1900); type: functional, organism-based
Streptokinase A = biological target: T3, Streptokinase A (Streptococcus pyogenes serotype M1, UniProt P10520); test: viability-normalized secreted streptokinase activity reduction – plasminogen activation absorbance, OD405, dose response (AID 1914); type: functional, Streptococcus pyogenes M1 GAS;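 note: secreted streptokinase activity via plasminogen activation per viability signal from cell pellet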
T3 sequence (P10520 whole entry): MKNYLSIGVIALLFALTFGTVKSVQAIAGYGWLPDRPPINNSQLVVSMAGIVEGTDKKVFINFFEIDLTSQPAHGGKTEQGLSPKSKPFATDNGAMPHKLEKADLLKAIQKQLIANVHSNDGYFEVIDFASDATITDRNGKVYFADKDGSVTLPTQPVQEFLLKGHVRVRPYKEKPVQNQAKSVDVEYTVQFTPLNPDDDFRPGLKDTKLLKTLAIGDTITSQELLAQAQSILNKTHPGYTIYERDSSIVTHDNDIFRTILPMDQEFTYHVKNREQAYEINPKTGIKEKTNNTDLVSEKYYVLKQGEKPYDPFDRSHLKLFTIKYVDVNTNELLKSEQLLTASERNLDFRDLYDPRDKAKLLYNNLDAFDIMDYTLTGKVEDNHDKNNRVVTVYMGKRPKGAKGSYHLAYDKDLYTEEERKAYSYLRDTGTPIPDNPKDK

[15] = Trypanosoma cruzi growth suppression in host cells – NIH3T3 host cells, beta-gal luminescence, confirmation (AID 2044); type: functional, cell-based;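 note: intracellular parasites grown in NIH/3T3 mouse fibroblasts as host cells; luminescent beta-galactosidase reporter signal from transgenic T. cruzi replicating inside host cells; inhibitors lower the luminescence signal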
[16] = NIH3T3 cell viability loss – ATP luminescence, mouse fibroblasts, counter-screen, dose response (AID 2010); type: functional, cell-based;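 note: cells exposed to compound for about 90 hours before reading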
Streptococcus = test: GAS UMAA2166 growth inhibition – luminescence, BacTiterGlo, counter-screen for streptokinase expression inhibitor project, dose response (AID 1915); type: functional, organism-based;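 note: potency for reduction of bacterial viability or growth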
[17] = viability loss in HepG2 hepatoma cells – cell-based, ATP luminescence, cherry-pick, activator set 2, cytotoxicity control, dose response (AID 1053143); type: functional
[18] = Luminescence Cell-Based Dose Confirmation HTS to Identify Activators of 5'UTR Stem-Loop Driven Alpha-Synuclein mRNA Translation in H4 Neuroglioblastoma Cells. [Related pubchem assays: 1829 (Project Summary), 1814 (Primary HTS)]; type: functional
[19] = Luminescence Cell-Based Dose Response HTS to Identify Activators of Luciferase Translation or Activity in H4 […] Cells. [Related pubchem assays: 1829 (Project Summary), 1814 (Primary HTS)]; type: functional
[20] = biological target: T4, Neuropeptide Y receptor type 1 (Homo sapiens, UniProt P25929); type: functional;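 note: HEK293 cells with a CNG channel challenged with NPY then isoproterenol; potency as antagonist that reverses NPY suppression of cAMP signal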
T4 sequence (P25929 whole entry): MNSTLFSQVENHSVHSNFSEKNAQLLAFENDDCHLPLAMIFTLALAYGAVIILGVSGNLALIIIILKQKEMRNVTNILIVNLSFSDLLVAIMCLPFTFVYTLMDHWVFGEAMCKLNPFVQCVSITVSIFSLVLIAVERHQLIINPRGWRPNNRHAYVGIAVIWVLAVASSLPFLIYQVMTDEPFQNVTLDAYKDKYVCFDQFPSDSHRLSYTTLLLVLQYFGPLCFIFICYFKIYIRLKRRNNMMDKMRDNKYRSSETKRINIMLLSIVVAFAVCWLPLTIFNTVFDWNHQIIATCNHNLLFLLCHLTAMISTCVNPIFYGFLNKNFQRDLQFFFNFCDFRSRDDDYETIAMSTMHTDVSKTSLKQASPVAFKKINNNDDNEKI

cells [21] = type: functional, cell-based
H4 = test: Luminescence Cell-Based Dose Response HTS to Identify Activators of 5'UTR Stem-Loop Driven Prion Protein mRNA Translation in H4 Neuroglioblastoma Cells. [Related pubchem assays: 1829 (Project Summary), 1814 (Primary HTS)]; type: functional; conditions: Homo sapiens
cells [22] = type: functional, cell-based; remark: listed apart in the source
[23] = biological target: T5, Neuropeptide Y receptor type 2 (Homo sapiens, UniProt P49146); type: functional, cell-based;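 note: HEK293 cells expressing the receptor and a CNG channel; stimulus was NPY near EC95 followed by isoproterenol to raise cAMP; antagonist potency measured as restoring cAMP signal that NPY suppresses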
T5 sequence (P49146 whole entry): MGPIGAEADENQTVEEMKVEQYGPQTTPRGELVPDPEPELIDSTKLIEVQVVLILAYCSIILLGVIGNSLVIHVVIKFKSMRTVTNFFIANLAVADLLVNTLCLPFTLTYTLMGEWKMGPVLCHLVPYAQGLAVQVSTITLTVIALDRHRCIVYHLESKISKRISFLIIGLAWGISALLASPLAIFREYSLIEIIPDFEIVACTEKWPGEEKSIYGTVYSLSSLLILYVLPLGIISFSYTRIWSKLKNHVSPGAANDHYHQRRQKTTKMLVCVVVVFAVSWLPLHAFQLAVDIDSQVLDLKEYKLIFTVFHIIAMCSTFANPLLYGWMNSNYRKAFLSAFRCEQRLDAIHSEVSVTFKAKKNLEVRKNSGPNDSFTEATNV

[24] = biological target: SWI/SNF-related matrix-associated actin-dependent regulator of chromatin subfamily A member 2 (Homo sapiens, UniProt P51531); test: Luminescence-based cell-based high throughput dose response assay to identify activators of the function of SWI/SNF related, matrix associated, actin dependent regulator of chromatin, subfamily a, member 2 (SMARCA2, BRM).; type: functional
Sequence of SWI/SNF-related matrix-associated actin-dependent regulator of chromatin subfamily A member 2 (P51531 whole entry): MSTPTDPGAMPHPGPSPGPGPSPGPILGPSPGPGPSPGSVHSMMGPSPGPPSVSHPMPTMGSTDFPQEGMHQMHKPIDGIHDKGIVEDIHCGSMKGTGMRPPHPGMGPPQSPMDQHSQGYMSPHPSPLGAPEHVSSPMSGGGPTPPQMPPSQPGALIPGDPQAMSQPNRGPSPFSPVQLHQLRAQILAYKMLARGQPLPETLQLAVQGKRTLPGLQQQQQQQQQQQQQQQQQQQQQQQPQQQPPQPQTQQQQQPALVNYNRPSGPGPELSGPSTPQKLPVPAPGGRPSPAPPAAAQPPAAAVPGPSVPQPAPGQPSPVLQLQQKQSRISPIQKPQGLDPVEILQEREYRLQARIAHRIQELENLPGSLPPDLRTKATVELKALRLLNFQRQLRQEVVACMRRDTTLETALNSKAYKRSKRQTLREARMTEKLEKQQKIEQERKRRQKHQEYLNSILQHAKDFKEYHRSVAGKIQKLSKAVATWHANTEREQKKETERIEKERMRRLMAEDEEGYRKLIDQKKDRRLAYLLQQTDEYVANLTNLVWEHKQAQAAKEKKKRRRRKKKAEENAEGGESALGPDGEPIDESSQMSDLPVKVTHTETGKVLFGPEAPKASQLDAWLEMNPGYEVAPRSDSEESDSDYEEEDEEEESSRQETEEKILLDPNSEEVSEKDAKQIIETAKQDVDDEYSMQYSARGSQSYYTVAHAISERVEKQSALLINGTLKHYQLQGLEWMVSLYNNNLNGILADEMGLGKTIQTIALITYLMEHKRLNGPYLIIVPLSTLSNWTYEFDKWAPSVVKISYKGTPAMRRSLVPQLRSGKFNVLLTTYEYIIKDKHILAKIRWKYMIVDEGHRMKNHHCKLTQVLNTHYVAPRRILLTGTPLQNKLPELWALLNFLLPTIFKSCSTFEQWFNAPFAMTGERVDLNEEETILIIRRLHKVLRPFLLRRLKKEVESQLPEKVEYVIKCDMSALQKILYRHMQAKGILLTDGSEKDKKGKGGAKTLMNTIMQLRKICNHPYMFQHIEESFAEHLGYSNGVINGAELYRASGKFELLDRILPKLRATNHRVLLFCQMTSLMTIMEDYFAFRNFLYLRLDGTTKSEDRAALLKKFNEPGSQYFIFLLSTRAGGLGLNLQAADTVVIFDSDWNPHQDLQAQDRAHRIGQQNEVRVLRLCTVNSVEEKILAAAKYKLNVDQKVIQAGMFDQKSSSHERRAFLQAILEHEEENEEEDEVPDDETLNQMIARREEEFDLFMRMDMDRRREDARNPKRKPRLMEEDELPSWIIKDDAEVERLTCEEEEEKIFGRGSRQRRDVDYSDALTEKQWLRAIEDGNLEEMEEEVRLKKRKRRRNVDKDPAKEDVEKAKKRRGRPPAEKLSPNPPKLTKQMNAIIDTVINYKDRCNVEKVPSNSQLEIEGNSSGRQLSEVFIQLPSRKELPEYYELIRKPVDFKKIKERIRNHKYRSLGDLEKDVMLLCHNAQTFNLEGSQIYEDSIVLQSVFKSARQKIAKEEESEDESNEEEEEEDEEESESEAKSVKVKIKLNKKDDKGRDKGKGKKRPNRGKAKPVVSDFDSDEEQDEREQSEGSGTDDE

[25] = Counterscreen for activators of the function of SWI/SNF related, matrix associated, actin dependent regulator of chromatin, subfamily a, member 2 (SMARCA2, BRM): Luminescence-based cell-based high throughput dose response assay to identify non-selective compounds using the VP16 reporter assay.; type: functional

Sequence of Protein disulfide-isomerase (P07237 whole entry): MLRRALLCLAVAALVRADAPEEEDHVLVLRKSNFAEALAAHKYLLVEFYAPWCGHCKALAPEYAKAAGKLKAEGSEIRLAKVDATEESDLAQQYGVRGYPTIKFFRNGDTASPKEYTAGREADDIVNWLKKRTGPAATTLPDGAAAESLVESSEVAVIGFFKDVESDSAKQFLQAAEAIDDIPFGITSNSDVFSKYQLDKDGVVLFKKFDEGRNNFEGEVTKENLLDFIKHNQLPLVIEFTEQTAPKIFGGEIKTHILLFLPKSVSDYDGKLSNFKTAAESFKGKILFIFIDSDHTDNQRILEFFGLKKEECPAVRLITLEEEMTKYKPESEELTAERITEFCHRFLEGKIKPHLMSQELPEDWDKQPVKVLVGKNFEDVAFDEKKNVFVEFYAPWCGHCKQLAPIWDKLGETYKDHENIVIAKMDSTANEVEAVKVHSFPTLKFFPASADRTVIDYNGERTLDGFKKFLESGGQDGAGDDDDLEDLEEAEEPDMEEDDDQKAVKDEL

SMILES: CCOC(=O)C1(CCOc2ccccc2)CCN(Cc2ccc(OC)c(Cl)c2)CC1
- AC50 [1]: > 30 µM (inactive)

SMILES: COc1ccccc1NC(=O)c1cccc(NC(=O)C2CCCC2)c1
- IC50 [2]: 1.55 µM (active)
- IC50 [3]: 43.5 µM (active)
- IC50 [4]: 0.238 µM (active)

SMILES: COc1ccc(-c2cc(C(F)(F)F)nc(S(C)(=O)=O)n2)cc1OC
- IC50 (Bcl-2-related protein A1 [5]): 25.4 µM (active)
- IC50 [6]: > 100 µM (not active)
- EC50 [7]: 4.49 µM (active)
- IC50 (Bcl-2-related protein A1 [8]): 12.7 µM (active) and 4.51 µM (active)
- EC50 [9]: 3.47 µM (active)
- IC50 (Bcl-2-related protein A1 [10]): 23.2 µM (active)
- EC50 [11]: 32.1 µM (active)
- EC50 [12]: 5.47 µM (active)
- AC50 [13]: 13.2 µM (active)

SMILES: Cc1ccc(N2C(=O)NC(=O)/C(=C\c3ccc(-c4ccc(Cl)c(C(=O)O)c4)o3)C2=O)cc1
- IC50 (NS3): 133 µM (active)

SMILES: Cc1nn(-c2ccccc2)c(C)c1/C=N/Nc1nc2ccccc2[nH]1
- EC50 [14]: 7.89 µM (active)
- EC50 (Streptokinase A): > 150 µM (not active)
- EC50 [15]: 2.15 µM (active)
- EC50 [16]: > 60 µM (not active)
- EC50 (Streptococcus): > 150 µM (not active)
- AC50 [17]: 26 µM (active)

SMILES: O=c1c2ccccc2nc2c3ccccc3c(NCCN3CCOCC3)nn12
- EC50 [18]: > 120 µM (not active)
- EC50 [19]: 18 µM (active)
- IC50 [20]: 4.38 µM (active)
- EC50 (cells [21]): > 350 µM (not active)
- EC50 (H4): > 120 µM (inconclusive)
- EC50 (cells [22]): > 350 µM (not active)
- IC50 [23]: > 35 µM (not active)
- EC50 [24]: > 10.1 µM (inactive)
- EC50 [25]: > 91.2 µM (inactive)
